Reference: patent US6376497B1, “Antifungal azole derivatives having a fluorinated vinyl group and process for preparing same” (Korea Research Institute of Chemical Technology, priority 1999, dated 2002)

What was measured:
Assay in all cases: In vitro antifungal activity, microbroth dilution MIC
Assay type in all cases: cell-based
Details in all cases: RPMI-1640, 35° C., 4 to 48 hours, no growth observed
[1] = tested on: Candida pseudotropicalis K. 11658
Procedure, shortened: (§1)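 Broth microdilution adapted from NCCLS M27, in RPMI-1640 with 0.165 M MOPS, pH 7.0. Yeast or mould inoculum at 2×10^3 CFU/ml was mixed 1:1 with DMSO-derived compound solutions (200 to 0.10 μg/ml before mixing) and incubated at 35 °C for 4 to 48 h. MIC was the concentration showing no growth.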

[2] = tested on: Cryptococcus neoformans B. 42419
Procedure, shortened: as §1

[3] = tested on: Candida krusei K. 11655
Procedure, shortened: as §1

[4] = tested on: Candida parapsitosis A. 7330
Procedure, shortened: as §1

[5] = tested on: Aspergillus niger A. 16404
Procedure, shortened: as §1

[6] = tested on: Cryptococcus neoformans IFM. 40092
Procedure, shortened: as §1

[7] = tested on: Candida albicans IFO. 1385
Procedure, shortened: as §1

[8] = tested on: Torulopsis glabrata B. 16205
Procedure, shortened: as §1

[9] = tested on: Aspergillus furnigatus B. 19119
Procedure, shortened: as §1

[10] = tested on: Candida tropicalis A. 13803
Procedure, shortened: as §1

[11] = tested on: Trichophyton mentagrophytes B. 32663
Procedure, shortened: as §1

[12] = tested on: Cryptococcus neoformans A. 34144
Procedure, shortened: as §1

[13] = tested on: Candida albicans A. 10231
Procedure, shortened: as §1

[14] = tested on: Trichophyton mentagrophytes A. 9129
Procedure, shortened: as §1

[15] = tested on: Candida albicans C1-2
Procedure, shortened: as §1

| Compound | Minimal inhibitory concentration(MIC), C. pseudotropicalis K. 11658 [1] [µg/mL] | Minimal inhibitory concentration(MIC), Cry. neoformans B. 42419 [2] [µg/mL] | Minimal inhibitory concentration(MIC), C. krusei K. 11655 [3] [µg/mL] | Minimal inhibitory concentration(MIC), C. parapsitosis A. 7330 [4] [µg/mL] | Minimal inhibitory concentration(MIC), A. niger A. 16404 [5] [µg/mL] | Minimal inhibitory concentration(MIC), Cry. neoformans IFM. 40092 [6] [µg/mL] | Minimal inhibitory concentration(MIC), C. albicans IFO. 1385 [7] [µg/mL] | Minimal inhibitory concentration(MIC), T. glabrata B. 16205 [8] [µg/mL] | Minimal inhibitory concentration(MIC), A furnigatus B. 19119 [9] [µg/mL] | Minimal inhibitory concentration(MIC), C. tropicalis A. 13803 [10] [µg/mL] | Minimal inhibitory concentration(MIC), T. mentagrophytes B. 32663 [11] [µg/mL] | Minimal inhibitory concentration(MIC), Cry. neoformans A. 34144 [12] [µg/mL] | Minimal inhibitory concentration(MIC), C. albicans A. 10231 [13] [µg/mL] | Minimal inhibitory concentration(MIC), T. mentagrophytes A. 9129 [14] [µg/mL] | Minimal inhibitory concentration(MIC), C. albicans C1-2 [15] [µg/mL] |
| --- | --- | --- | --- | --- | --- | --- | --- | --- | --- | --- | --- | --- | --- | --- | --- |
| FC(=Cc1ccccc1)Oc1ccc(OCC2COC(Cn3ccnc3)(c3ccc(Cl)cc3Cl)O2)cc1 (mixture of isomers) [Ex. 88] | >100 | 1.56 | >100 | >100 | 100 | 0.78 | 6.25 | >100 | >100 | >100 | 100 | 1.56 | 100 | 100 | 100 |
| Cc1ccc(C=C(F)Oc2ccc(OCC3COC(Cn4ccnc4)(c4ccc(Cl)cc4Cl)O3)cc2)cc1 (mixture of isomers) [Ex. 89] | 6.25 | 1.56 | 12.5 | 12.5 | >100 | 0.78 | 25.0 | 50.0 | 100 | 100 | 6.25 | 3.13 | 100 | 6.25 | 100 |
| COc1cccc(C=C(F)Oc2ccc(OCC3COC(Cn4ccnc4)(c4ccc(Cl)cc4Cl)O3)cc2)c1 (mixture of isomers) [Ex. 90] | >100 | 6.25 | >100 | >100 | >100 | 0.78 | 12.5 | 100 | >100 | >100 | 50.0 | 12.5 | 100 | 50.0 | 100 |
| FC(=Cc1cccc(Cl)c1)Oc1ccc(OCC2COC(Cn3ccnc3)(c3ccc(Cl)cc3Cl)O2)cc1 (mixture of isomers) [Ex. 91] | >100 | 1.56 | >100 | >100 | >100 | 0.78 | 6.25 | >100 | 100 | >100 | >100 | 1.56 | 100 | 100 | 100 |
| FC(=Cc1ccc(F)cc1)Oc1ccc(OCC2COC(Cn3ccnc3)(c3ccc(Cl)cc3Cl)O2)cc1 (mixture of isomers) [Ex. 92] | >100 | 3.13 | >100 | >100 | >100 | 0.78 | 3.13 | 50.0 | >100 | >100 | 12.5 | 3.13 | 25.0 | 25.0 | 50.0 |
| FC(Oc1ccc(OCC2COC(Cn3ccnc3)(c3ccc(Cl)cc3Cl)O2)cc1)=C(c1ccccc1)C(F)(F)F (mixture of isomers) [Ex. 93] | >100 | >100 | >100 | >100 | >100 | 1.56 | 6.25 | 100 | >100 | >100 | 25.0 | 12.5 | 100 | 25.0 | >100 |
| Cc1ccc(C(=C(F)Oc2ccc(OCC3COC(Cn4ccnc4)(c4ccc(Cl)cc4Cl)O3)cc2)C(F)(F)F)cc1 (mixture of isomers) [Ex. 94] | >100 | 3.13 | >100 | >100 | >100 | 0.78 | 3.13 | 50.0 | >100 | >100 | 12.5 | 3.13 | 25.0 | 25.0 | 50.0 |
